{"source": "patent US20170356895A1", "about": "“TOXICANT ASSAYS FOR CONSUMABLE PRODUCTS” (priority 2016, published 2017)", "tested_on": "zebrafish (Danio rerio) AB strain embryos", "assay": "Acute toxicity testing of extracts using zebrafish embryos (mortality rate after 48 hr exposure)", "format": "in vivo", "details": "3.7 mg/L", "experimental": "Extracts prepared as described in Example 1 were tested for acute toxicity using zebrafish (Danio rerio) AB strain embryos. Chicken breast extracts were diluted into zebrafish embryo culture medium at 0.25, 0.50, 1.00, 2.00 and 4.00 μl/ml. Zebrafish AB strain embryos of 4-128 cell stages were exposed to extract dilutions in a 96-well plate at 1 embryo per well. Each concentration was tested with 20 embryos. Zebrafish embryo culture medium and 3.7 mg/L dichloroaniline were included as negative and positive controls, respectively. After 48 hr exposure at 26° C., zebrafish embryos were observed under a stereomicroscope and fish embryos that were coagulated, tail not detached, and having no heart beat were marked as dead. Mortality rate for each concentration was calculated as the acute toxicity endpoint. The mortality rate for the negative control was 0% and for the positive control was 65%.\nThe acute toxicity of milk powder extracts prepared as described in Example 4 were tested for acute toxicity using zebrafish (Danio rerio) AB strain embryos. Milk powder extracts were diluted into zebrafish embryo culture medium at 0.33, 0.50, 0.76, 1.74 and 4.00 μl/ml. Zebrafish AB strain embryos of 4-128 cell stages were exposed to extract dilutions in a 96-well plate with 1 embryo per well. […] Mortality rate of each concentration was calculated as the acute toxicity endpoint. […]", "data": [{"smiles": "Nc1ccc(Cl)c(Cl)c1", "note": "[3,4-dichloroaniline]", "values": [{"measurement": "Mortality rate for positive control", "setting": "48-hr exposure at 26° C., Example 5 (milk powder test)", "result": 60, "unit": "%"}, {"measurement": "Mortality rate for the positive control", "setting": "48 hr exposure at 26° C., Example 2 (chicken breast test)", "result": 65, "unit": "%"}]}]}
